Data as given in publication PMC11402846, “Does a postmortem redistribution affect the concentrations of the 7 azaindole-derived synthetic cannabinoid 5F-MDMB-P7AICA in tissues and body fluids following pulmonary administration to pigs?” (Archives of Toxicology, 2024).

Columns and labels:
[1] = death case, cited from earlier work; for central blood (CB) levels versus peripheral blood (PB) levels: PMI: 20 h, ref Zaitsu et al. ([2015])
[2] = Perimortem and postmortem concentrations in tissues and body fluids after pulmonary administration of 5F-MDMB-P7AICA to pigs (LC-MS/MS); format: in vivo; details: pig
Method: The experiments were conducted in compliance with the German legislation on protection of animals and the National Institutes of Health Guide for the Care and Use of Laboratory Animals (permission number 32/2018). Six domestic male pigs (Swabian Hall strain; body weight [BW] 40–51.2 kg, 3 months old) were kept with free access to water and standard daily food (OlymPig fattening feed, Raiffeisen, Münster, Germany). One night prior to the experiments, the animals were kept fasting. […] The room temperature was 22 ± 1 °C with a humidity of 55 ± 10%.
As previously described (Doerr et al. [2020]; Schaefer et al. [2019], [2020a]), an ethanolic solution of 5 mg/mL 5F-MDMB-P7AICA was prepared. An aliquot of 1.600–2.048 mL was filled up with ethanol to a total volume of 2 mL, if needed to achieve a concentration of 200 µg per kg BW. The SC was administered inhalatively over 6.5–8 min, using a M-Neb flow + ventilation ultrasonic nebulizer MN-300/7 (Nebutec, Elsenfeld, Germany) in the inspiration-triggered mode.
Animal euthanasia was conducted eight hours after the drug administration using T 61 (embutramide, 0.12 mL/kg BW, Intervet Deutschland GmbH, Unterschleißheim, Germany). Afterwards, the abdominal cavity was opened. Samples of the following organs, tissues and body fluids were collected (PMI 0) and stored at − 20 °C until further analysis: Brain (cerebrum), lungs and liver with no differentiation between the lobes, kidneys, muscle tissue (from the hindleg), adipose tissue (subcutaneous (sc), dorsal, perirenal), bile fluid, duodenum content, urine (only at PMI 0) and PB (V. jugularis) as well as CB.
The abdominal cavity was sutured leaving the organs in situ and the animal bodies were kept at room temperature in a supine position. Analogously, samples were taken again after 24, 48 and 72 h (PMI 1–3), respectively. Yet, PM PB specimens were obtained by sampling the coagulated blood from the V. femoralis or V. brachialis. For this purpose, the whole vessel was sampled and the blood was drawn therefrom using a pipette with a wide lumen.
Specimens were prepared according to a previous published method (Schaefer et al. [2017], [2019], [2020a]) with changes regarding the applied buffers and the amount of acetonitrile. An amount of 2 g of solid tissue (brain, lung, liver, kidney and muscle tissue) was homogenized (1:5 w/w with water), respectively and 1 g of body fluids (bile fluid, duodenum content, and urine) was diluted (1:10 w/w for bile and duodenum content, 1:5 w/w for urine, respectively, with water). The samples were stored at − 20 °C.
To determine the standard addition calibration curves, four 0.5 g aliquots were added to 20 µL of an ethanolic stable-isotope-labeled internal standard solution (SIL-IS, 1 ng/20 µL AB-FUBINACA-d4) and 25 µL of ethanol or an ethanolic solution of the analytes.
Subsequently, the solution was mixed with 500 µL of acetate buffer and 50 µL of β-glucuronidase/arylsulfatase and incubated for 2 h at 60 °C to induce enzymatic hydrolysis of the glucuronidated DBA (phase-II metabolite).
For the following protein precipitation, the samples were mixed with 500 µL of acetonitrile and centrifuged at 3500g for 8 min. The supernatants were transferred to 1 mL phosphate buffer (pH 9) vortexed and centrifuged at 3500g for 8 min again.
Solid phase extraction (SPE) was carried out using Strata C18 end capped cartridges (Phenomenex, Aschaffenburg, Germany), previously conditioned with 2 × 3 mL methanol and 3 mL phosphate buffer. After loading the samples, the columns were washed with 3 mL phosphate buffer, 3 mL acetic acid (0.25 M) and 3 mL deionized water, respectively. 60 μL acetone was added and columns were dried for 5 min using negative pressure (about 33 kPa). Thereafter, the analytes were eluted with a mixture of 1.5 mL methanol-acetone (1:1, v/v) and the eluate was evaporated under a gentle stream of nitrogen at 60 °C. […]

[3] = parameters: method as in Walle et al. [2023]; details: authentic fatal case, comparable survival time after drug intake; ref Walle et al. [2023]; cited from earlier work
[4] = 200 µg/kg BW inhalative, PMI 0 (8 h after administration)
[5] = 200 µg/kg BW inhalative, PMI 1 (24 h after euthanasia, room temperature)
[6] = 200 µg/kg BW inhalative, PMI 2 (48 h after euthanasia, room temperature)
[7] = 200 µg/kg BW inhalative, PMI 3 (72 h after euthanasia, room temperature)

For COC(=O)[C@@H](NC(=O)c1cn(CC2CCCCC2)c2ccccc12)C(C)(C)C [MDMB-CHMICA], the “quotient of central/peripheral blood (C/P ratio)” value ([1]; 12 h after death, ref Gaunitz et al. [2018]) is given as about 1.

In the case of N#CCCCCn1cc(C(=O)c2cccc3ccccc23)c2ccccc21 [AM-2232], the “central blood (CB) levels versus peripheral blood (PB) levels” value [1] is listed as “significantly exceeded”.

In the case of CN1CCCCC1Cn1cc(C(=O)c2cccc3ccccc23)c2ccccc21 (stereo not drawn) [AM-1220], the “central blood (CB) levels versus peripheral blood (PB) levels” value [1] is listed as “significantly exceeded”.

In the case of Cc1ccc(C(=O)c2cn(CCCCCF)c3ccccc23)c2ccccc12 [MAM-2201], the “central blood (CB) levels versus peripheral blood (PB) levels” value [1] is listed as “significantly exceeded”.

For CC(C)(C)C(NC(=O)c1cn(CCCCCF)c2ncccc12)C(=O)O (stereo not drawn) [DBA, 5F-MDMB-P7AICA-dimethylbutanoic acid], the “Mean concentration ± SD in CB (central blood)” value (“Mean concentration ± SD in CB” for short) [2, 4] was 0.22 ± 0.11 n = 6 ng/mL, the “Mean concentration ± SD in bile fluid” value [2, 4] was 57 ± 100 n = 6 ng/g and the “Mean concentration ± SD in brain” value [2, 4] was “tested negative and neg”. For the same molecule, the “Mean concentration ± SD in dorsal fat” value [2, 4] was 0.60 ± 0.35 n = 6 ng/g, the “Mean concentration ± SD in duodenum content” value [2, 4] was 82 ± 72 n = 6 ng/g and the “Mean concentration ± SD in kidney” value [2, 4] was 5.4 ± 4.7 n = 6 ng/g. The “Mean concentration ± SD in liver” value [2, 4] was 0.87 ± 0.37 n = 6 ng/g, the “Mean concentration ± SD in lung” value [2, 4] was 0.20 ± 0.071 n = 4 ng/g and the “Mean concentration ± SD in muscle” value [2, 4] was 0.14 ± 0.011 n = 3 ng/g. For the same molecule, the “Mean concentration ± SD in perirenal fat” value [2, 4] was 8.8 ± 5.6 n = 6 ng/g, the “Mean concentration ± SD in s.c. fat” value [2, 4] was 1.1 ± 1.1 n = 6 ng/g and the “Mean concentration ± SD in urine” value [2, 4] was 78 ± 45 n = 6 ng/g. The “Mean concentration ± SD in CB” value [2, 5] was 0.32 ± 0.40 n = 5 ng/mL, the “Mean concentration ± SD in PB (peripheral blood)” value (“Mean concentration ± SD in PB” for short) [2, 5] was 0.47 ± 0.21 n = 6 ng/mL and the “Mean concentration ± SD in bile fluid” value [2, 5] was 37 ± 71 n = 6 ng/g. The “Mean concentration ± SD in brain” value [2, 5] was 0.13 ± 0.056 n = 6 ng/g, the “Mean concentration ± SD in dorsal fat” value [2, 5] was 0.28 ± 0.19 n = 6 ng/g and the “Mean concentration ± SD in duodenum content” value [2, 5] was 13 ± 15 n = 6 ng/g. For the same molecule, the “Mean concentration ± SD in kidney” value [2, 5] was 5.1 ± 5.0 n = 6 ng/g, the “Mean concentration ± SD in liver” value [2, 5] was 1.2 ± 1.4 n = 6 ng/g and the “Mean concentration ± SD in lung” value [2, 5] was 0.33 ± 0.21 n = 5 ng/g. The “Mean concentration ± SD in muscle” value [2, 5] was 0.10 ± 0.027 n = 6 ng/g, the “Mean concentration ± SD in perirenal fat” value [2, 5] was 1.0 ± 1.2 n = 5 ng/g and the “Mean concentration ± SD in s.c. fat” value [2, 5] was 0.45 ± 0.46 n = 5 ng/g. The “Mean concentration ± SD in CB” value [2, 6] was 0.21 ± 0.17 n = 5 ng/mL, the “Mean concentration ± SD in PB” value [2, 6] was 0.48 ± 0.16 n = 6 ng/mL and the “Mean concentration ± SD in brain” value [2, 6] was 0.18 ± 0.065 n = 6 ng/g. For the same molecule, the “Mean concentration ± SD in dorsal fat” value [2, 6] was 0.16 ± 0.064 n = 4 ng/g, the “Mean concentration ± SD in kidney” value [2, 6] was 7.0 ± 5.9 n = 6 ng/g and the “Mean concentration ± SD in liver” value [2, 6] was 1.8 ± 1.2 n = 6 ng/g. The “Mean concentration ± SD in lung” value [2, 6] was 0.92 ± 0.69 n = 6 ng/g, the “Mean concentration ± SD in muscle” value [2, 6] was 0.11 ± 0.047 n = 5 ng/g and the “Mean concentration ± SD in perirenal fat” value [2, 6] was 2.0 ± 1.7 n = 6 ng/g. The “Mean concentration ± SD in s.c. fat” value [2, 6] was 0.18 ± 0.086 n = 5 ng/g, the “Mean concentration ± SD in CB” value [2, 7] was 0.20 ± 0.10 n = 5 ng/mL and the “Mean concentration ± SD in PB” value [2, 7] was 0.28 ± 0.093 n = 6 ng/mL. The “Mean concentration ± SD in brain” value [2, 7] was 0.16 ± 0.043 n = 6 ng/g, the “Mean concentration ± SD in dorsal fat” value [2, 7] was 0.11 ± 0.033 n = 5 ng/g and the “Mean concentration ± SD in duodenum content” value [2, 7] was 9.0 ± 17 n = 6 ng/g. The “Mean concentration ± SD in kidney” value [2, 7] was 6.5 ± 5.9 n = 6 ng/g, the “Mean concentration ± SD in liver” value [2, 7] was 2.8 ± 1.9 n = 6 ng/g and the “Mean concentration ± SD in lung” value [2, 7] was 0.89 ± 0.57 n = 5 ng/g. The “Mean concentration ± SD in muscle” value [2, 7] was 0.17 ± 0.089 n = 6 ng/g, the “Mean concentration ± SD in perirenal fat” value [2, 7] was 4.6 ± 3.7 n = 6 ng/g and the “Mean concentration ± SD in s.c. fat” value [2, 7] was 0.27 ± 0.17 n = 5 ng/g. The “Concentration in bile fluid” value ([2]; 200 µg/kg BW inhalative, PMI 3 (72 h after euthanasia, room temperature), only sampled from 2 pigs) was 7.5–120 n = 2^2 ng/g, the “Mean concentration ± SD in PB” value ([2]; 5F-MDMB-P7AICA 200 µg/kg BW inhalative, PMI 0 (8 h after administration)) was 0.18 ± 0.11 n = 6 ng/mL and the “Postmortem redistribution (PMR)” value ([2]; 3 days storage at room temperature) was “no relevant PMR was observed”. For the same molecule, the “Amount in the remaining tissues” value ([2]; PMI 0, tissues other than urine, bile fluid, duodenum content, kidney, perirenal fat) was “less than 1 ng/g”, the “Concentration change in bile and duodenum” value ([2]; PMI 2 compared to PMI 0, p < 0.05) was “decrease was statistically significant” and the “Concentration change in dorsal and subcutaneous fat specimens” value ([2]; over the PMI) was “significant lower concentrations over time”. For the same molecule, the “CB concentration in fatal case” value [3] was 46 ng/mL and the “PB concentration in fatal case” value [3] was 5.7 ng/mL.
